Results: US20200131156A1, “ARYLSULFONYLPYROLECARBOXAMIDE DERIVATIVES AS Kv3 POTASSIUM CHANNEL ACTIVATORS” (H. Lundbeck A/S, priority 2018, published 2020)

How the values were obtained:
[1] = In vivo pharmacokinetic time profile in mice (plasma and brain); design: species or system mouse; conditions: for Kp / Cmax / half-life: male; for Kp: C57, mouse, brain, read-out: measured brain/plasma ratio; for Cmax / half-life: C57, plasma; for Cmax / half-life / Estimated unbound brain Cmax / Unbound plasma, Cmax: mouse; for half-life: read-out: T½ (converted)
Method: (§1) Male Sprague Dawley rats or male C57 mice from SLAC Laboratory Animal Co. Ltd., Shanghai, China or SIPPR/BK Laboratory Animal Co. Ltd., Shanghai, China were used for pharmacokinetic studies. Animals were group housed during acclimation and individually housed during in-life. The animal room environment was controlled (conditions: temperature 20 to 26° C., relative humidity 30 to 70%, 12 hours artificial light and 12 hours dark) and all animals have access to Certified Rodent Diet (Beijing KEAO XIELI Feed Co., Ltd. Beijing, P.R. China.) ad libitum. Animals were deprived of food overnight prior to dosing and fed approximately 4 hours post-dosing. Water was autoclaved before provided to the animals ad libitum.
(§2) For oral dosing, the dose formulation was administered via oral gavage.
(§3) Animals were anesthetized via isoflurane. At terminal time point, about 200 μL blood was collected from cardiac puncture or abdominal vein. All blood samples were transferred into microcentrifuge tubes containing 5 μL of K2EDTA (0.5 M) as anti-coagulant and placed on wet ice until processed for plasma by centrifugation (3,000 rpm for 5 minutes at 2 to 8° C.) within half an hour of collection and kept at −70±10° C. until LC/MSMS analysis
(§4) After blood collection, brain was harvested and washed twice with cold deionized water, and blotted on filter paper, weighted and frozen until processed. Brain samples were thawed and homogenized with 4-fold of cold water using Covaris (peak power 450.0, Duty Factor 20.0, Cycles/Burst 200). for 3 min, vortex for 10 second every 1 min. Samples were further stored at −79° C. (dilution factor=5) until bioanalysis

[2] = system: fast-spiking interneurons (FSI); test: Hippocampal brain slice voltage clamp recording, outward K+ current from FSI; type: cell-based, rat; conditions: 10 μM; for Outward current in presence of compound relative to baseline: step to 0 mV, baseline 100%
Method: Male Sprague Dawley rats (18˜24 days old) from Shanghai Laboratory Animal Center (Shanghai, China) were used for brain slice experiments. They were housed in groups of five in controlled conditions (temperature of 23±3° C., humidity of 40-70%, and 12:12 light-dark cycle with lights on at 5:00 am) and free access to food and water. All procedures were conducted in agreement with the guideline of Institutional Animal Care and Use Committee at ChemPartner. Ethical approval was obtained by the The Danish Animal Experimentation Inspectorate (journal no. 2014 15 0201 00339).
Animals were decapitated by a guillotine and their brains quickly removed and placed in ice-cold modified artificial cerebral spinal fluid (ACSF) containing (in mM): 110 sucrose, 60 NaCl, 3 KCl, 5 glucose, 28 NaHCO3, 1.25 NaH2PO4, 0.5 CaCl2 and 7 MgCl2, aerated with 95% O2/5% CO2. The brains were block-trimmed and glued onto the stage of a vibratome (VT1200S, Leica Microsystems Inc., Bannockburn, Ill., USA). Parasagittal hippocampal slices (300 μm) were cut and incubated in the regular carbogenated ACSF containing (in mM): 119 NaCl, 2.5 KCl, 1.2 Na2HPO4, 25 NaHCO3, 2.5 CaCl2, 1.3 MgCl2, 10 glucose at 35° C. for the first 60 min and then transferred to room temperature prior to recordings.
In the hippocampal CA1 pyramidal cell layer, fast-spiking interneurons (FSI) or pyramidal (PYR) cells were visualized using differential interference contrast-infrared (DIC-IR)-assisted microscopy and whole-cell patch clamp recordings performed using an Axon Multiclamp 700B amplifier (Molecular Devices, Union City, Calif.). FSI were selected based on non-pyramidal shape and multipolar dendrites. […]
Whole cell patch clamp recordings in voltage clamp mode were used to study the outward K^+ current from FSI or PYR cells. […] Outward K^+ current was recorded in the presence of 1 μM TTX and 10 μM DNQX in the ACSF to inhibit voltage-gated Na^+ channels and AMPA channels, respectively. […] For all recordings, the access resistance was monitored throughout the experiments. […]

[3] = In vivo pharmacokinetic time profile in rats (plasma and brain); conditions: rat; for Cmax / half-life / Kp: male, Sprague Dawley; for Cmax / half-life: plasma; for Cmax: vehicle 10% HP-betaCD; for half-life: read-out: T½ (converted); for Kp: brain, read-out: measured brain/plasma ratio
Method: as §1, §2, §3, §4

[4] = PO, dose 3 (mg/mg), unbound fraction in plasma 10%
[5] = PO, dose 30 (mg/mg), unbound fraction in plasma 10%
[6] = SC, dose 3 (mg/mg), unbound fraction in plasma 10%
[7] = SC, dose 10 (mg/mg), unbound fraction in plasma 10%
[8] = PO administration, dose 3 (mg/mg)
[9] = PO administration, dose 30 (mg/mg)
[10] = SC administration, dose 3 (mg/mg)
[11] = SC administration, dose 10 (mg/mg)
[12] = 3 mg/mg, SC administration, dose 3 (mg/mg [sic])
[13] = 30 mg/mg, SC administration, dose 30 (mg/mg [sic])

Compound: Cc1cnc(CNC(=O)c2ccn(S(=O)(=O)c3ccc(F)cc3C)c2)cn1 [Compound 90, 1-(4-fluoro-2-methylbenzene-1-sulfonyl)-N-[(5-methylpyrazin-2-yl)methyl]-1H-pyrrole-3-carboxamide]
- Kp [1]: 0.4
- Cmax ([1]; 3 mg/kg, PO administration, dose 3 (mg/mg), vehicle 10% HP-betaCD): 274 ng/mL
- half-life ([1]; 3 mg/kg, PO administration, dose 3 (mg/mg)): 60 min
- Cmax ([1]; 3 mg/kg, SC administration, dose 3 (mg/mg), vehicle 10% HP-betaCD): 1130 ng/mL
- half-life ([1]; 3 mg/kg, SC administration, dose 3 (mg/mg)): 30 min
- Cmax ([1]; 10 mg/kg, SC administration, dose 10 (mg/mg), vehicle 10% HP-betaCD): 6360 ng/mL
- half-life ([1]; 10 mg/kg, SC administration, dose 10 (mg/mg)): 78 min
- Cmax ([1]; 30 mg/kg, PO administration, dose 30 (mg/mg), vehicle 10% HP-betaCD): 7350 ng/mL
- half-life ([1]; 30 mg/kg, PO administration, dose 30 (mg/mg)): 60 min
- Estimated unbound brain Cmax ([1]; PO, dose 3 (mg/mg), based on brain/plasma ratio 0.4 and unbound fraction in brain 10%): 28 nM
- Unbound plasma, Cmax [1, 4]: 70 nM
- Estimated unbound brain Cmax ([1]; PO, dose 30 (mg/mg), based on brain/plasma ratio 0.4 and unbound fraction in brain 10%): 753 nM
- Unbound plasma, Cmax [1, 5]: 1895 nM
- Estimated unbound brain Cmax ([1]; SC, dose 3 (mg/mg), based on brain/plasma ratio 0.4 and unbound fraction in brain 10%): 116 nM
- Unbound plasma, Cmax [1, 6]: 291 nM
- Estimated unbound brain Cmax ([1]; SC, dose 10 (mg/mg), based on brain/plasma ratio 0.4 and unbound fraction in brain 10%): 656 nM
- Unbound plasma, Cmax [1, 7]: 1639 nM
- Reversibility of compound-mediated increase in outward K+ current (Wash) [2]: largely reversible
- Outward current in presence of compound relative to baseline [2]: 144±4%
- Cmax [3, 8]: 627 ng/mL
- half-life [3, 8]: 120 min
- Cmax [3, 9]: 3940 ng/mL
- half-life [3, 9]: 66 min
- Cmax [3, 10]: 427 ng/mL
- half-life [3, 10]: 48 min
- Cmax [3, 11]: 1370 ng/mL
- half-life [3, 11]: 42 min
- Kp [3]: 0.5
- Estimated unbound brain Cmax ([3]; PO, dose 3 (mg/mg), based on brain/plasma ratio 0.5 and unbound fraction in brain 8%): 65 nM
- Unbound plasma, Cmax [3, 4]: 160 nM
- Estimated unbound brain Cmax ([3]; PO, dose 30 (mg/mg), based on brain/plasma ratio 0.5 and unbound fraction in brain 8%): 406 nM
- Unbound plasma, Cmax [3, 5]: 1015 nM
- Estimated unbound brain Cmax ([3]; SC, dose 3 (mg/mg), based on brain/plasma ratio 0.5 and unbound fraction in brain 8%): 44 nM
- Unbound plasma, Cmax [3, 6]: 110 nM
- Estimated unbound brain Cmax ([3]; SC, dose 10 (mg/mg), based on brain/plasma ratio 0.5 and unbound fraction in brain 8%): 142 nM
- Unbound plasma, Cmax [3, 7]: 353 nM

Compound: Cc1ccc(S(=O)(=O)n2ccc(C(=O)NCc3ncco3)c2)cc1 [Compound 86, 1-(4-methylbenzene-1-sulfonyl)-N-[(1,3-oxazol-2-yl)methyl]-1H-pyrrole-3-carboxamide]
- Kp ([1]; subcutaneous): 0.3
- half-life ([1]; SC administration, dose 3 (mg/mg) (Table 7)): 42 min
- Cmax ([1]; SC administration, dose 3 (mg/mg), vehicle 10% HP-betaCD (Table 7)): 3020 ng/mL
- half-life ([1]; SC administration, dose 30 (mg/mg) (Table 7)): 36 min
- Cmax ([1]; SC administration, dose 30 (mg/mg), vehicle 10% HP-betaCD (Table 7)): 22000 ng/mL
- Estimated unbound brain Cmax ([1]; SC, dose 3 (mg/mg), based on brain/plasma ratio 0.3 and unbound fraction in brain 11%): 289 nM
- Unbound plasma, Cmax ([1]; SC, dose 3 (mg/mg), unbound fraction in plasma 8%): 700 nM
- Estimated unbound brain Cmax ([1]; SC, dose 30 (mg/mg), based on brain/plasma ratio 0.3 and unbound fraction in brain 11%): 2100 nM
- Unbound plasma, Cmax ([1]; SC, dose 30 (mg/mg), unbound fraction in plasma 8%): 5094 nM
- Outward current in presence of compound relative to baseline [2]: 121±2%
- Cmax [3, 12]: 1100 ng/mL
- half-life [3, 12]: 18 min
- Cmax [3, 13]: 7620 ng/mL
- half-life [3, 13]: 24 min
- Kp ([3]; subcutaneous): 0.25
- Estimated unbound brain Cmax ([3]; SC, dose 3 (mg/mg [sic]), based on brain/plasma ratio 0.25 and unbound fraction in brain 12%): 95 nM
- Unbound plasma, Cmax ([3]; SC, dose 3 (mg/mg [sic]), unbound fraction in plasma 12%): 380 nM
- Estimated unbound brain Cmax ([3]; SC, dose 30 (mg/mg [sic]), based on brain/plasma ratio 0.25 and unbound fraction in brain 12%): 663 nM
- Unbound plasma, Cmax ([3]; SC, dose 30 (mg/mg [sic]), unbound fraction in plasma 12%): 2650 nM
